One block for each compound: values may come before it.
What was measured:
[1] = Antiproliferative activity against human HBL1 cells expressing BTK C481S mutant assessed as growth inhibition; assay type: functional
[2] = biological target: von Hippel-Lindau disease tumor suppressor/Steroid hormone receptor ERR1 (Homo sapiens) (UniProt P11474+P40337); assay: Protac activity at VHL/ERRalpha in human MCF7 cells assessed as maximum degradation; assay type: cell-based
[3] = biological target: T1, Steroid hormone receptor ERR1 (Homo sapiens) (UniProt P11474); assay: In vivo protac activity at ERRalpha in human MDA-MB-231 cells xenografted mouse assessed as reduction in ERRalpha level in tumor at 100 mg/kg, ip administered 3 times a day; assay type: functional, organism-based; parameters: scale not given: the % may be the effect or the level left
T1 sequence (whole entry): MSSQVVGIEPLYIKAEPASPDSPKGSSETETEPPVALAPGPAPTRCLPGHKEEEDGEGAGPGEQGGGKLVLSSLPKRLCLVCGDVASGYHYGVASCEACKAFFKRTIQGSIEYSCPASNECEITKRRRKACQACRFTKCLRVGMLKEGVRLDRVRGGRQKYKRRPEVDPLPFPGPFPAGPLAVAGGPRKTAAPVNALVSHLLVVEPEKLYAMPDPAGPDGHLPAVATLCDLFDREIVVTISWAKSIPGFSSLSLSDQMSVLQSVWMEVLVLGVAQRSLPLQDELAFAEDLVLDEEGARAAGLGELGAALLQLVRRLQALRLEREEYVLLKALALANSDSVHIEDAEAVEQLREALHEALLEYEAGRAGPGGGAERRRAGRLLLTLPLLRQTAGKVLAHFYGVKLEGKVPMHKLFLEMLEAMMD

[4] = biological target: Cellular tumor antigen p53 (Homo sapiens) (UniProt P04637); assay: Induction of p53 stabilization in human HCT-116 cells assessed as fold increase by Western blot analysis; assay type: cell-based
Cellular tumor antigen p53 (Homo sapiens), sequence (P04637 whole entry, looked up): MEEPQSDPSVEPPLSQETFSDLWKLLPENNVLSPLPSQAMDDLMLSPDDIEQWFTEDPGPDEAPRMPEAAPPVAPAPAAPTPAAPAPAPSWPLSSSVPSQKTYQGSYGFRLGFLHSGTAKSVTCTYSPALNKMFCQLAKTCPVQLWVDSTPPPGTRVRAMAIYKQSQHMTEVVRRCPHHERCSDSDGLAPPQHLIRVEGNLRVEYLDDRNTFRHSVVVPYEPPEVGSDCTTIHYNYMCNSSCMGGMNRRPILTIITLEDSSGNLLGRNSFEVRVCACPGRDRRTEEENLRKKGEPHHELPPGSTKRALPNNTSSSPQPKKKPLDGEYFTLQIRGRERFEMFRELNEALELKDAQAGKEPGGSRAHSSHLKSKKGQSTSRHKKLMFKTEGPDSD

von Hippel-Lindau disease tumor suppressor/Steroid hormone receptor ERR1 (Homo sapiens), sequence (P40337 whole entry, looked up, one chain of several): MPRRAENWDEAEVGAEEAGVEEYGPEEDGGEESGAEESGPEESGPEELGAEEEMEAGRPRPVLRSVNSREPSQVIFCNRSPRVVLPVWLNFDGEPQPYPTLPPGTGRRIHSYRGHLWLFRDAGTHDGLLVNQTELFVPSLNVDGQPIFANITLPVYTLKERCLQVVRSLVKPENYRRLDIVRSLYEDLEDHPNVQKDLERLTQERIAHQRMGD

Compound: Nc1ncnc2c1c(-c1ccc(Oc3ccccc3)cc1)nn2[C@@H]1CCCN(C(=O)c2cn(CCOCCOCCOCCNc3cccc4c3C(=O)N(C3CCC(=O)NC3=O)C4=O)nn2)C1 (stereo not given in full)
- GI50 [1]: 0.028 µM

- Emax [2]: 86%
- Activity [3]: 39%
Compound: COc1cc(/C=C2/SC(=O)N(CCOCCC(=O)N[C@@H](C(=O)N3C[C@H](O)C[C@H]3C(=O)Nc3ccc(-c4scnc4C)cc3)C(C)(C)C)C2=O)ccc1Oc1ccc(C#N)cc1C(F)(F)F

Compound: C=CC(=O)N1CCC[C@@H](n2nc(-c3ccc(Oc4ccccc4)cc3)c3c(N)ncnc32)C1 [IBRUTINIB]
- GI50 [1]: 0.7 µM

- fold change (FC) [4]: 5.9
Compound: COc1cc(C(=O)NCCOCCOCCOCCNC(=O)C[C@@H]2N=C(c3ccc(Cl)cc3)C3C(C)=C(C)SC3n3c(C)nnc32)ccc1NC(=O)[C@@H]1N[C@@H](CC(C)(C)C)[C@](C#N)(c2ccc(Cl)cc2F)[C@H]1c1cccc(Cl)c1F (stereo not given in full)

From ChEMBL document CHEMBL5244252, “PROTAC: A promising technology for cancer treatment” (Eur J Med Chem, 2020)
